In experiment [1] the test system is Plasmodium falciparum. As to the kind of experiment: Antimalarial activity against chloroquine-sensitive Plasmodium falciparum D6. The class given is functional, organism-based.
Experiment [2] relates to Plasmodium falciparum. As to the kind of experiment: Antimalarial activity against chloroquine-resistant Plasmodium falciparum Dd2. In kind it is functional, organism-based.
For a further experiment, the system named is Plasmodium chabaudi. The experiment in a line: Antimalarial activity in Plasmodium chabaudi infected CF1 mice (Mus musculus) at 64 mg/kg over 4 days.

Bounds are passed on as bounds.

A word on the IC50: it is the concentration that inhibits the measured activity by half. High values mean lower potency, low ones higher potency.

For the molecule `CN(CCCNc1ccnc2cc(Cl)ccc12)CCCN1c2ccccc2CCc2ccccc21`, the half-maximal inhibitory concentration (IC50) in the experiment with Plasmodium falciparum [1] is 2.9 nM; with Plasmodium falciparum [2], 5.3 nM. The Activity in the experiment with Plasmodium chabaudi was over 99%.
